Experimental data as given in patent publication US9302993B2, “8-hydroxy quinoline derivatives” (PRANA BIOTECHNOLOGY LIMITED, priority 2002, dated 2016).
≈ marks a conversion by molar mass, not a printed value. Like-named read-outs stand apart in the source and are kept apart here.

Tests used:
APP2576 transgenic mouse [1] = conditions: previous studies on transgenic mice, 20-30 mg/kg orally daily five days per week, 2-3 months; cited from earlier work
[2] = system: moderately severe AD patients; assay: Phase II clinical trial of PBT-1 in Alzheimer's disease (Example 21); format: in vivo, human; conditions: for Steady state pre-dose levels of PBT-1: blood; for difference in mean change from baseline ADAS-cog score of PBT-1 over placebo: more-severely affected groups
From the text: The performance of the less-severely affected group (ADAS-cog<25) deteriorated negligibly over this interval, so cognitive changes could not be discriminated in this stratum.
The study took place at the AD clinical trials unit, Mental Health Research Institute of Victoria and at the Royal Melbourne Hospital. Criteria for inclusion in the study were: informed consent; a diagnosis of probable AD by NINCDS-ADRDA criteria (McKhann et al., 1984); AD Assessment Scale-cognitive (ADAS-cog) (Rosen et al., 1984) score of 18-45; Mini Mental State Examination (MMSE) (Folstein et al., 1975) score of 10-24; on donepezil 5 mg or 10 mg for at least 6 months; relative or carrier willing and able to support the trial; able to complete trial examinations; primary sensorial functions intact.
The study was a double blind, placebo-controlled, parallel group randomized design. […] The duration of the study was 36 weeks.
Screening procedures consisted of a complete medical history, physical, neurological and ophthalmic examination, blood and urine tests and psychometric tests (ADAS-cog, MMSE). Nerve conduction tests and visual evoked responses were conducted between the screening and baseline visits to provide a baseline measurement. Blood was collected for ApoE allotyping, baseline plasma levels of metals and Aβ prior to randomization. All patients continued their study entry dose of donepezil and all patients received 100 mg vitamin B12 intramuscularly every four weeks.
Blood samples were collected by antecubital venepuncture except on weeks 12, 24 and 36 when they were collected by an indwelling catheter. […] Zn data from these intervals were therefore omitted from analysis.
The primary clinical efficacy variable was a change from baseline score on the ADAS-cog conducted at baseline and at weeks 4, 12, 24 and 36. This measure was chosen to allow comparability of treatment effects with current therapeutics such as donepezil, where efficacy trials also used ADAS-cog as their primary outcome measure (Rogers et al., 1998). Although numerous neuropsychological tests could be considered as secondary measures, it was necessary to avoid fatiguing the subjects at review. Therefore the only other cognitive test was the Mini-Mental State Exam (MMSE). The CIBIC+ (clinician interview based impression of change incorporating caregiver information), a subjective observational index was also conducted. Plasma Aβ, and plasma zinc and copper were all taken every four weeks.
Polystyrene plates were coated with mAb G210 (for Aβ40) or mAb G211 (for Aβ42). Plates were washed and biotinylated mAb WO2 was added. Bound antibody was detected with streptavidin-labelled Europium (Perkin Elmer, Vic Australia). The values obtained from triplicated wells were calculated based on standard curves generated on each plate. Plasma samples supplemented with synthetic Aβ1-40 and Aβ1-42 were also assayed to confirm measurement reliability across the concentration range of interest.
Metals were measured by inductively coupled plasma mass spectrometry as previously described (Cherny et al., 2001).
Standard adverse event reporting was conducted and biochemical tests, renal and liver function, complete blood examination, serum vitamin B12 and folate levels were documented at each visit. To assess for peripheral and optic neuropathy a neurological examination was conducted at each visit, and visual evoked responses, nerve conduction studies and ophthalmic examination were conducted at screening, week 16 and prior to the final trial visit. An ECG was done at screening and weeks 12, 24 and 36.
Data monitoring and management were undertaken by independent contractors (Kendle International and Health Research Solutions, Melbourne). Evidence for efficacy was indicated by a significant difference in change from baseline between treatment arms. […]

APP2576 transgenic mouse [3] = assay: Effect of administration of test compounds on Aβ deposits in transgenic animals (Assay 11); format: in vivo; design: concentration or dose not given beside the values; conditions: transgenic mouse brains
[4] = Turbidimetric solubility measurements (Assay 13); format: physicochemical; conditions: kinetic from dmso stock, 1% DMSO, nephelometry
Method: Turbidimetric Solubility Measurements
The solubility estimate was measured at both pH 2.0 and pH 6.5. This is within the pH range that can be anticipated along the proximal gastrointestinal tract in humans.
The compounds were dissolved in DMSO to appropriate concentrations and then spiked into either 0.01M HCl (approx. pH=2.0) or pH 6.5 isotonic phosphate buffer, the final DMSO concentration being 1%. Samples were then analysed via Nephelometry to determine a solubility range. [as per D. Bevan and R. S. Lloyd, Anal. Chem. 2000, 72, 1781-1787].

APP2576 transgenic mouse [5] = assay: Transgenic mouse brain immunohistochemistry, plaque abundance (Assay 15); format: in vivo
From the text: Assay 15. Transgenic Mouse Brain Immunohistochemistry
The APP2576 transgenic mouse (Hsiao et al., 1996) as referred to in Assay 11 were utilized in this assay. The contralateral formalin-fixed mouse brain tissue was coronally cut. Sections (10 μm) were taken from the corresponding sites and treated with 80% formic acid for antigen retrieval. The primary antibody used was monoclonal antibody 1E8, which recognizes epitopes between residues 18 and 22 of Aβ (SmithKline Beecham, UK). Immunoreactivity was developed with secondary antibody linked to horseradish peroxidase (using a 3,39-diaminobenzidinechromagen) (Dako) and alkaline phosphatase (using 5-bromo-4-chloro 3-indoxyl phosphate and nitroblue tetrazolium chloride chromagen) (Dako). Plaque abundance per section was assessed by two operators blinded to treatment according to the following scale:
1=plaques present but very sparse
2=several plaques present
3=numerous plaques visible in restricted areas
4=plaques abundant and not restricted to any particular area.
Intermediate values eg 2.5 were assigned where applicable.
Students' t ‘test was used for comparisons between groups.

[6] = system: Aβ in extract of tissue from post mortem human AD brain; assay: Human brain amyloid solubilisation assay (Assay 9, BAS); format: biochemical; conditions: solubilising plaques relative to PBS
How it was run: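 Plaque-bearing post mortem AD cortex homogenised in ice-cold PBS pH 7.4 and spun 100,000×g, 30 min to separate PBS-soluble supernatant from insoluble pellet. Aβ in each fraction resolved on Tris-Tricine 10-20% gels, immunoblotted with W02 antibody and ECL, quantified by densitometry against synthetic Aβ40 standards (0.5, 1, 2 ng).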

[7] = E Log D, chromatographic method (Assay 13); format: physicochemical; conditions: SUPELCOSIL LC-ABZ column with octanol saturated mobile phase, pH 7.4; read-out: E Log D7.4
Method: Effective Log D values were measured using a chromatographic method employing a SUPELCOSIL LC-ABZ column using an octanol saturated mobile phase at pH 7.4.

Neuronal cortical cells = assay: Assay for test compound cytoxicity, MTS (Assay 3(d)); format: cell-based, mouse; conditions: BL6J×129sv, mouse, 4 days
[8] = system: Neuronal cortical cells treated with Aβ1-42; assay: Assay for Aβ neurotoxicity and Aβ neuroprotection (Assay 3(c)); format: cell-based, mouse; conditions: 20 uM Aβ1-42, 4 days, MTS
Method: Media was then replaced with Neurobasal media (Invitrogen Life Technologies) and B27 supplements (Invitrogen Life Technologies). Cultures were maintained at 37° C. in 5% CO2. Prior to experimentation, the culture medium was replaced with Neurobasal media and B27 minus antioxidants (Invitrogen Life Technologies).
(c) Assay for Aβ Neurotoxicity and Aβ Neuroprotection
Neuronal cortical cells were cultured for five days as per Assay 2. On day six the neurobasal (NB) media (Invitrogen Life Technologies) and B27 supplement (Invitrogen Life Technologies) were replaced with NB media and B27 supplement (no antioxidants). On day six, test compounds were individually added to the neuronal cell cultures:
Aβ was initially dissolved in 20 mM NaOH to a concentration of 1 mM and sonicated for 5 minutes. The peptide was then diluted in H2O and 10×PBS to a final concentration of 200 uM Aβ in 1×PBS. The peptide was again sonicated for 5 minutes and then spun at 14000 rpm for 5 min and transferred to a fresh tube.
The test compounds were dissolved in 100% DMSO to a concentration of 2.5 mM (10 mM if excess compound was weighed out per vial—then diluted to 2.5 mM). […] Test compounds were not added directly to cells, instead they were added to a 48 well ‘Drug Plate’ as comprised below:
The Drug Plate was incubated at 37° C. for 15 mins. 200 ul of each well was added in triplicate to the corresponding cell plate. The cell plate was incubated at 37 C, for 4 days.
On the 4th day after treating the cells the assay is completed by adding MTS to the cells.

Oc1c(I)cc(Cl)c2cccnc12 [PBT-1]
inhibiting Aβ accumulation (APP2576 transgenic mouse [1]): markedly effective | effect on plasma Cu ([2]; AD patients): no effect | elevation of total plasma Zn ([2]; AD patients): ≈ 30% | Steady state pre-dose levels of PBT-1 ([2]; total daily dosage 250 mg): 4.03 ± 2.10 µg/mL | Steady state pre-dose levels of PBT-1 ([2]; total daily dosage 500 mg): 6.74 ± 3.70 µg/mL | Steady state pre-dose levels of PBT-1 ([2]; total daily dosage 750 mg): 7.60 ± 2.15 µg/mL | Plasma Aβ42 change from baseline ([2]; from week 20 onwards): significant decline from baseline | difference in mean change from baseline ADAS-cog score of PBT-1 over placebo ([2]; week 24): 7.37 | difference in mean change from baseline ADAS-cog score of PBT-1 over placebo ([2]; week 36): 6.36 | effect of treatment in preventing cognitive deterioration ([2]; over 36 weeks, more-severely affected patients (baseline ADAS-cog≧25)): statistically significant

Oc1c(Cl)cc(Cl)c2ccc(-c3ccccn3)nc12 [compound 1052, 5,7-dichloro-8-hydroxy-2-(2-pyridyl)quinoline]
Insoluble fraction. % change compared with control. (APP2576 transgenic mouse [3]; insoluble Aβ): −22% | Soluble fraction. % change compared with control. (APP2576 transgenic mouse [3]; soluble Aβ): negligible | solubility ([4]; aqueous buffer, pH 6.5 isotonic phosphate buffer, read-out: Solubility pH 6.5): < 3.1 µg/mL | solubility ([4]; simulated gastric fluid, 0.01M HCl (approx. pH 2.0), read-out: Solubility (μg/mL) 0.01M HCl): 6.3 to 12.5 µg/mL (≈ 21.6 to 42.9 µM) | % difference from control (sham treated animal) (APP2576 transgenic mouse [5]; plaque score): −8% | Mean plaque score (APP2576 transgenic mouse [5]; scale 0 to 4): 3.2 | BAS Score [6]: + | chromatographic logD [7]: 2.85 | Test Compound Cytoxicity 1 uM (Neuronal cortical cells; 1 uM): 63 | Test Compound Cytoxicity 10 uM (Neuronal cortical cells; 10 uM): 32 | % inhibition Abeta toxicity [8]: 19%
